Experimental data from ChEMBL document CHEMBL2010722, “Structure-activity relationship study of beta-carboline derivatives as haspin kinase inhibitors” (Bioorg Med Chem Lett, 2012).

Tests used:
[1] = molecular target: Tyrosine-protein kinase ABL1 (Homo sapiens) (UniProt P00519); assay: Inhibition of ABL at 10 uM
[2] = molecular target: Epidermal growth factor receptor (Homo sapiens) (UniProt P00533); assay: Inhibition of EGFR at 10 uM
[3] = molecular target: Ephrin type-A receptor 6 (Homo sapiens) (UniProt Q9UF33); assay: Inhibition of EPHA6 at 10 uM
[4] = molecular target: Tyrosine-protein kinase HCK (Homo sapiens) (UniProt P08631); assay: Inhibition of HCK at 10 uM
[5] = molecular target: Receptor tyrosine-protein kinase erbB-2 (Homo sapiens) (UniProt P04626); assay: Inhibition of HER2 at 10 uM
[6] = molecular target: Insulin receptor-related protein (Homo sapiens) (UniProt P14616); assay: Inhibition of IRR at 10 uM
[7] = test system: Mast/stem cell growth factor receptor Kit (Homo sapiens), P10721 [T670I]; assay: Inhibition of KIT T670I mutant at 10 uM
[8] = test system: Mast/stem cell growth factor receptor Kit (Homo sapiens), P10721 [V654A]; assay: Inhibition of KIT V654A mutant at 10 uM
[9] = molecular target: Leukocyte tyrosine kinase receptor (Homo sapiens) (UniProt P29376); assay: Inhibition of LTK at 10 uM
[10] = molecular target: NPM/ALK (Nucleophosmin/ALK tyrosine kinase receptor) (Homo sapiens) (UniProt Q9UM73+P06748); assay: Inhibition of NPM1-ALK at 10 uM; assay type: protein-complex assay
[11] = test system: Platelet-derived growth factor receptor alpha (Homo sapiens), P16234 [T674I]; assay: Inhibition of PDGFRa T674I mutant at 10 uM
[12] = molecular target: High affinity nerve growth factor receptor (Homo sapiens) (UniProt P04629); assay: Inhibition of TRKA at 10 uM
[13] = molecular target: Aurora kinase B/Inner centromere protein (Homo sapiens) (UniProt Q96GD4+Q9NQS7); assay: Inhibition of AurB-INCENP at 10 uM; assay type: protein-complex assay
[14] = molecular target: Calcium/calmodulin-dependent protein kinase type II subunit beta (Homo sapiens) (UniProt Q13554); assay: Inhibition of CaMK2b at 10 uM
[15] = molecular target: Citron Rho-interacting kinase (Homo sapiens) (UniProt O14578); assay: Inhibition of CRIK at 10 uM
[16] = molecular target: Eukaryotic elongation factor 2 kinase (Homo sapiens) (UniProt O00418); assay: Inhibition of EEF2K at 10 uM
[17] = molecular target: Glycogen synthase kinase-3 alpha (Homo sapiens) (UniProt P49840); assay: Inhibition of GSK3a at 10 uM
[18] = molecular target: Homeodomain-interacting protein kinase 4 (Homo sapiens) (UniProt Q8NE63); assay: Inhibition of HIPK4 at 10 uM
[19] = molecular target: Inhibitor of nuclear factor kappa-B kinase subunit alpha (Homo sapiens) (UniProt O15111); assay: Inhibition of IKKa at 10 uM
[20] = molecular target: LKB1-STRAD-MO25 complex (Homo sapiens) (UniProt Q15831+Q7RTN6+Q9Y376); assay: Inhibition of LKB1-MO25a-STRADa at 10 uM; assay type: protein-complex assay
[21] = molecular target: Dual specificity mitogen-activated protein kinase kinase 1 (Homo sapiens) (UniProt Q02750); assay: Inhibition of MAP2K1 at 10 uM
[22] = molecular target: Dual specificity mitogen-activated protein kinase kinase 3 (Homo sapiens) (UniProt P46734); assay: Inhibition of MAP2K3 at 10 uM
[23] = molecular target: Dual specificity mitogen-activated protein kinase kinase 7 (Homo sapiens) (UniProt O14733); assay: Inhibition of MAP2K7 at 10 uM
[24] = molecular target: Mitogen-activated protein kinase kinase kinase 2 (Homo sapiens) (UniProt Q9Y2U5); assay: Inhibition of MAP3K2 at 10 uM
[25] = molecular target: Mitogen-activated protein kinase kinase kinase 4 (Homo sapiens) (UniProt Q9Y6R4); assay: Inhibition of MAP3K4 at 10 uM
[26] = molecular target: Mitogen-activated protein kinase kinase kinase 5 (Homo sapiens) (UniProt Q99683); assay: Inhibition of MAP3K5 at 10 uM
[27] = molecular target: MAP kinase-activated protein kinase 2 (Homo sapiens) (UniProt P49137); assay: Inhibition of MAPKAPK2 at 10 uM
[28] = molecular target: MAP kinase-activated protein kinase 3 (Homo sapiens) (UniProt Q16644); assay: Inhibition of MAPKAPK3 at 10 uM
[29] = molecular target: Mitogen-activated protein kinase kinase kinase 10 (Homo sapiens) (UniProt Q02779); assay: Inhibition of MLK2 at 10 uM
[30] = molecular target: Mitogen-activated protein kinase kinase kinase 11 (Homo sapiens) (UniProt Q16584); assay: Inhibition of MLK3 at 10 uM
[31] = molecular target: Proto-oncogene serine/threonine-protein kinase mos (Homo sapiens) (UniProt P00540); assay: Inhibition of MOS at 10 uM
[32] = molecular target: Serine/threonine-protein kinase 26 (Homo sapiens) (UniProt Q9P289); assay: Inhibition of MST4 at 10 uM
[33] = molecular target: Serine/threonine-protein kinase Nek4 (Homo sapiens) (UniProt P51957); assay: Inhibition of NEK4 at 10 uM
[34] = molecular target: Serine/threonine-protein kinase Nek7 (Homo sapiens) (UniProt Q8TDX7); assay: Inhibition of NEK7 at 10 uM
[35] = molecular target: NUAK family SNF1-like kinase 2 (Homo sapiens) (UniProt Q9H093); assay: Inhibition of NuaK2 at 10 uM
[36] = molecular target: Mitogen-activated protein kinase 11 (Homo sapiens) (UniProt Q15759); assay: Inhibition of p38beta at 10 uM
[37] = molecular target: Serine/threonine-protein kinase PAK 3 (Homo sapiens) (UniProt O75914); assay: Inhibition of PAK3 at 10 uM
[38] = molecular target: Eukaryotic translation initiation factor 2-alpha kinase 3 (Homo sapiens) (UniProt Q9NZJ5); assay: Inhibition of PEK at 10 uM
[39] = molecular target: Protein kinase C beta type (Homo sapiens) (UniProt P05771); assay: Inhibition of PKCbeta1 at 10 uM
[40] = molecular target: Protein kinase C theta type (Homo sapiens) (UniProt Q04759); assay: Inhibition of PKCq at 10 uM
[41] = molecular target: Serine/threonine-protein kinase D1 (Homo sapiens) (UniProt Q15139); assay: Inhibition of PKD1 at 10 uM
[42] = molecular target: Serine/threonine-protein kinase PLK2 (Homo sapiens) (UniProt Q9NYY3); assay: Inhibition of PLK2 at 10 uM
[43] = molecular target: Serine/threonine-protein kinase PLK4 (Homo sapiens) (UniProt O00444); assay: Inhibition of PLK4 at 10 uM
[44] = molecular target: Serine/threonine-protein kinase SIK2 (Homo sapiens) (UniProt Q9H0K1); assay: Inhibition of QIK at 10 uM
[45] = molecular target: Serine/threonine-protein kinase Sgk1 (Homo sapiens) (UniProt O00141); assay: Inhibition of SGK at 10 uM
[46] = molecular target: Wee1-like protein kinase (Homo sapiens) (UniProt P30291); assay: Inhibition of WEE1 at 10 uM

Chain of Eukaryotic translation initiation factor 2-alpha kinase 3 (Homo sapiens) (Q9NZJ5 whole entry): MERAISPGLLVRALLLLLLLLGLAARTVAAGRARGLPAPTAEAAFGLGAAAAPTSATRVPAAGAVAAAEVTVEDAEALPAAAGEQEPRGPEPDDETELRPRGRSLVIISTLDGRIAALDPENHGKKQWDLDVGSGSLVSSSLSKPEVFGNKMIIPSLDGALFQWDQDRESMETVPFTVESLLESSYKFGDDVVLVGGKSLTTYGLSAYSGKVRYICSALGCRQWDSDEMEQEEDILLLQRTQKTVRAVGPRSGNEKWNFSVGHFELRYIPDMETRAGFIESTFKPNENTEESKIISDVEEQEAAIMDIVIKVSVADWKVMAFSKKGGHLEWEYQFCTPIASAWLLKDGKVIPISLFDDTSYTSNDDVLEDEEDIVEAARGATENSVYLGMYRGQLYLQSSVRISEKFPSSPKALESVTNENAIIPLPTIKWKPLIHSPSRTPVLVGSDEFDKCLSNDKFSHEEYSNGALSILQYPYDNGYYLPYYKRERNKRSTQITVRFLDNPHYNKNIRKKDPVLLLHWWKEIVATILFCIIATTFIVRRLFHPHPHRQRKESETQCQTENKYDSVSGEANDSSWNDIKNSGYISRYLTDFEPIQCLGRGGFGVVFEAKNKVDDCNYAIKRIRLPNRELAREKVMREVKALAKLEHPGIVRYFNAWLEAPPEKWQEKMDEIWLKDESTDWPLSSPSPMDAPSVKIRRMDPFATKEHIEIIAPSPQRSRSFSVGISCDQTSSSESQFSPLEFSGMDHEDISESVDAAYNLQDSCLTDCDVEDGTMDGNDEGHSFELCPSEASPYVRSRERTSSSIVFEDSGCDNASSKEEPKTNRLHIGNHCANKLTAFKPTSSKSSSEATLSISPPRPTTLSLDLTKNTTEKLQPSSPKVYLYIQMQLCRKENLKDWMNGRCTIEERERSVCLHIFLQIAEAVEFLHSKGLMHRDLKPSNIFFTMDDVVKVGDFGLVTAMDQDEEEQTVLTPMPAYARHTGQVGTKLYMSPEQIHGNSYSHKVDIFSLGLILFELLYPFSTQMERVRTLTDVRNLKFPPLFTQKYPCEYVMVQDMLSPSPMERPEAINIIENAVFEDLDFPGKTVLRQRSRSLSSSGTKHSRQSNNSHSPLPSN
Chain of Platelet-derived growth factor receptor alpha (Homo sapiens), P16234 [T674I] (P16234 whole entry T674I): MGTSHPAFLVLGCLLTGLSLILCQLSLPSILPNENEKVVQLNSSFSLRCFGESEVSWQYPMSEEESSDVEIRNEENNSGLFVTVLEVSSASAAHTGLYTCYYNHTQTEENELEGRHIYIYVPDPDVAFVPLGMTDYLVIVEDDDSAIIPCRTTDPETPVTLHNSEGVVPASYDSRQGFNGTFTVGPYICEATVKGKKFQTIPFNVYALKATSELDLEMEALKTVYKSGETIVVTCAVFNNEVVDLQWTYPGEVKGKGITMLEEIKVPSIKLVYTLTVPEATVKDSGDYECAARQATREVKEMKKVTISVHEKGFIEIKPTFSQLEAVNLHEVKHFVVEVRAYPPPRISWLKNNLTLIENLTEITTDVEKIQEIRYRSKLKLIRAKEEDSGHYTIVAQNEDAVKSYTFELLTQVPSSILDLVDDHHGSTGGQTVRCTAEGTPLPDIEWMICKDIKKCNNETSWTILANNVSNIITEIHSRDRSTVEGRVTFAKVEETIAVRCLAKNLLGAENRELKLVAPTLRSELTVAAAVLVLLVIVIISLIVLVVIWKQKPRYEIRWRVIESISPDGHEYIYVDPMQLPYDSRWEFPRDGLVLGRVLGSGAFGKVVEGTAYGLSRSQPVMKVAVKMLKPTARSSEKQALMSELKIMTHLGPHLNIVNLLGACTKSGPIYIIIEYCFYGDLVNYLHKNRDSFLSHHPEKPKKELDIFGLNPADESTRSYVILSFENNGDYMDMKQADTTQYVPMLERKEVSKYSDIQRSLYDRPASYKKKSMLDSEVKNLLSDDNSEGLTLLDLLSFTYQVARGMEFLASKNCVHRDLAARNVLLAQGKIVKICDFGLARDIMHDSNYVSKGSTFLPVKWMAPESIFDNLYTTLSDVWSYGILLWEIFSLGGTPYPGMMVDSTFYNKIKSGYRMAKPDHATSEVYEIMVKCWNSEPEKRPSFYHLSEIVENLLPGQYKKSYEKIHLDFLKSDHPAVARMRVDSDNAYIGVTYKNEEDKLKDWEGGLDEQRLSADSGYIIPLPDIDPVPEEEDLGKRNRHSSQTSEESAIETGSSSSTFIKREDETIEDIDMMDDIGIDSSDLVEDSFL
Chain of Serine/threonine-protein kinase Nek4 (Homo sapiens) (P51957 whole entry, looked up): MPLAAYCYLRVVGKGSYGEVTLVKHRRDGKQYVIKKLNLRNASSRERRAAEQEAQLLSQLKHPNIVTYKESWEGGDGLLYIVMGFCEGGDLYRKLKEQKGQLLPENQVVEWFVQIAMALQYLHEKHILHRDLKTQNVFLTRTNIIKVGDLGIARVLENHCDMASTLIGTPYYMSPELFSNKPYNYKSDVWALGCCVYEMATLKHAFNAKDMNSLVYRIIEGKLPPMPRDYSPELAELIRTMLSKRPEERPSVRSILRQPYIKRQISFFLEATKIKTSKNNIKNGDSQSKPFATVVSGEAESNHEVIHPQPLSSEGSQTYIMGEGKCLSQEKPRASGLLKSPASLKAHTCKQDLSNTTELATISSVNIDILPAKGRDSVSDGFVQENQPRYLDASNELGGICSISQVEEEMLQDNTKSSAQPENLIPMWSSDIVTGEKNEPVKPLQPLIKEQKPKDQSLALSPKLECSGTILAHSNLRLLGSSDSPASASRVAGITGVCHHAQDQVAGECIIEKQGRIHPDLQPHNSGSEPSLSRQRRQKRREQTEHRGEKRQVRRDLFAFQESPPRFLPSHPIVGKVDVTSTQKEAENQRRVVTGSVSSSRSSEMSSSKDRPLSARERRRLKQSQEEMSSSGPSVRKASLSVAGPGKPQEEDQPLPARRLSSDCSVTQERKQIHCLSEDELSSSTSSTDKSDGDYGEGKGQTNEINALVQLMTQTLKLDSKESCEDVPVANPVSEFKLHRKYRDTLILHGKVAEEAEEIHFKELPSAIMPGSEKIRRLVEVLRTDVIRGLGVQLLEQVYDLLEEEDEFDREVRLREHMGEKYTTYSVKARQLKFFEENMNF
Chain of Epidermal growth factor receptor (Homo sapiens) (P00533 whole entry): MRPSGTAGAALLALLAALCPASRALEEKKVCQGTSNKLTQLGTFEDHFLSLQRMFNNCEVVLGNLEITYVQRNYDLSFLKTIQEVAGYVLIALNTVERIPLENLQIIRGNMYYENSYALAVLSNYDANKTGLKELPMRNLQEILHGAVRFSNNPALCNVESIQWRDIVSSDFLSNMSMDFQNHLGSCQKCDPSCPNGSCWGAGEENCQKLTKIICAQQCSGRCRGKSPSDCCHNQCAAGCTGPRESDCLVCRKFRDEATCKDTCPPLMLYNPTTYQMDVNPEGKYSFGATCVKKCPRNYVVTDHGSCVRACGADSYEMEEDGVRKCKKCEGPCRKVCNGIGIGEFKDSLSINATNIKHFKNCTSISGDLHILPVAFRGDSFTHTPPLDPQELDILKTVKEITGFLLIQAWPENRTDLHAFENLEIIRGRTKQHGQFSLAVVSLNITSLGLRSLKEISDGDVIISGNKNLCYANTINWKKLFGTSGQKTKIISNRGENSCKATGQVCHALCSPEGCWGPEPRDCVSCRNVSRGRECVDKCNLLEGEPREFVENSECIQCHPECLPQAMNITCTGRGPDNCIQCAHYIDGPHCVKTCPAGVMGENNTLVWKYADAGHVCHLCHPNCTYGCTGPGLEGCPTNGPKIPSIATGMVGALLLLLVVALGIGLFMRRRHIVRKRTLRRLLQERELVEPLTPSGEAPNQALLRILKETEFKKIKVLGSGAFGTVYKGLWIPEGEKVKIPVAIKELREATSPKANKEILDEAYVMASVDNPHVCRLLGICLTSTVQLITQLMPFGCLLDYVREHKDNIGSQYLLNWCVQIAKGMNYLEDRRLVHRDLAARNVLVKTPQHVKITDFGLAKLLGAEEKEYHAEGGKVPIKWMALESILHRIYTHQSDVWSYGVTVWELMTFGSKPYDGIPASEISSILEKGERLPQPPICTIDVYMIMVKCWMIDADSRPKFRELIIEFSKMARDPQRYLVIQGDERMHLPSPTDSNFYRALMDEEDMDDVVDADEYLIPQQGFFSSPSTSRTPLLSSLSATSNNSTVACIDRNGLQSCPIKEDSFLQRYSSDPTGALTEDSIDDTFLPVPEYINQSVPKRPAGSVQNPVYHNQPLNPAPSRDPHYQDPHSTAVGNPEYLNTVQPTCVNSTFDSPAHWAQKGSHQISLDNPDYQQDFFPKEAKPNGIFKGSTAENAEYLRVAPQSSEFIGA
Chain of Eukaryotic elongation factor 2 kinase (Homo sapiens) (O00418 whole entry): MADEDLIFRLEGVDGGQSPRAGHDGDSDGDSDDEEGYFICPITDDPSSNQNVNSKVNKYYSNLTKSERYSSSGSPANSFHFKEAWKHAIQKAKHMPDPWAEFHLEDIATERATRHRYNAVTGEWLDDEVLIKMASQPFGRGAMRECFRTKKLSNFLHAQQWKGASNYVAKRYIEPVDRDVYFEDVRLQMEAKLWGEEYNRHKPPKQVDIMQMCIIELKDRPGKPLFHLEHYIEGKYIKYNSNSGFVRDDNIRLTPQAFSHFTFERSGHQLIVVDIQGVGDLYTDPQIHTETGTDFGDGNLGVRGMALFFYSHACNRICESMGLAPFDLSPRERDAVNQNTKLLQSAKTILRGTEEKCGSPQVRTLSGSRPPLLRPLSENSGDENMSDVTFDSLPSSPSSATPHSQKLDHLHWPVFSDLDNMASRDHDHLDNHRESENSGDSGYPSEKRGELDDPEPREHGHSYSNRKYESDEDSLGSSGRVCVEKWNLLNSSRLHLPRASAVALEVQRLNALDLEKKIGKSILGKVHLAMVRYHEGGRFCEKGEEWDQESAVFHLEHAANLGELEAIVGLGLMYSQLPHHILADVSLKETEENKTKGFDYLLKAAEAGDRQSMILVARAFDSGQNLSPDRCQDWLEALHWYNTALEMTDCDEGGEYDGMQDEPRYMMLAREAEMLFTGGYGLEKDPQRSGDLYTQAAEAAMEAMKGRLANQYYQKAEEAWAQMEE

`COc1ccc2c3ccnc(C(F)(F)F)c3n(CCCCN)c2c1` was tested, and the inhibition [1] was 3%, the inhibition [2] was 13% and the inhibition [3] was 0%. It also gave an inhibition [4] of 1%, an inhibition [5] of 0% and an inhibition [6] of 0%. It also gave an inhibition [7] of 16%, an inhibition [8] of 5% and an inhibition [9] of 5%. It also gave an inhibition [10] of 4%, an inhibition [11] of 49% and an inhibition [12] of 8%. For the same compound, the inhibition [13] was 5%, the inhibition [14] was 91% and the inhibition [15] was 86%. For the same compound, the inhibition [16] was 0%, the inhibition [17] was 48% and the inhibition [18] was 28%. For the same compound, the inhibition [19] was 7%, the inhibition [20] was 21% and the inhibition [21] was 16%. The inhibition [22] was 38%, the inhibition [23] was 15% and the inhibition [24] was 13%. The inhibition [25] was 8%, the inhibition [26] was 17% and the inhibition [27] was 7%. The inhibition [28] was 1%, the inhibition [29] was 5% and the inhibition [30] was 3%. For the same compound, the inhibition [31] was 16%, the inhibition [32] was 0% and the inhibition [33] was 4%. For the same compound, the inhibition [34] was 0%, the inhibition [35] was 27% and the inhibition [36] was 5%. It also gave an inhibition [37] of 27%, an inhibition [38] of 0% and an inhibition [39] of 35%. The inhibition [40] was 42%, the inhibition [41] was 85% and the inhibition [42] was 15%. The inhibition [43] was 22%, the inhibition [44] was 26% and the inhibition [45] was 34%. For the same compound, the inhibition [46] was 0%.
